Consider 14 compounds from DBAASP.

Converted amounts (≈) assume the structure as drawn. “And” between values parts separate entries of the source, which are not always exact repeats. Equal values may be shown once.

What all share (experiment): ≥ marks a high value that may be exact or a test limit, other limits are often not marked, values filed in µg/mL are converted to µM
For test [1], the system named is Staphylococcus aureus ATCC 29213.
The subject of test [2] is Escherichia coli ATCC 25922.
Test [3] deals with Staphylococcus epidermidis ATCC 12228.
The subject of test [4] is Staphylococcus aureus.
The test system of test [5] is Escherichia coli.
Test [6] has as its system Candida albicans.
Test [7] concerns Enterococcus faecalis ATCC 29212.
Test [8] relates to Bacillus subtilis.
In test [9] the test system is Pseudomonas aeruginosa ATCC 27853.

The term MIC denotes the smallest concentration in the dilution series that meets the test's criterion for growth inhibition.

`CC(=O)N[C@@H](CC(C)C)C(=O)N[C@@H](CCCCN)C(=O)N[C@@H](CCCCN)C(=O)N[C@@H](CC(C)C)C(=O)N[C@@H](CC(C)C)C(=O)N[C@@H](CCCCN)C(=O)N[C@@H](CC(C)C)C(=O)N[C@@H](CC(C)C)C(=O)N[C@@H](CCCCN)C(=O)N[C@@H](CCCCN)C(=O)N[C@@H](CC(C)C)C(=O)N[C@@H](CC(C)C)C(=O)N[C@@H](CCCCN)C(=O)N[C@@H](CC(C)C)C(=O)N[C@@H](C)C(=O)NCC(N)=O` [LKKLLKLLKKLLKLAG]: the MIC in test [1] and in test [2] was 20 µM (≈ 37.2 µg/mL) each time.
Turning to `CC[C@H](C)[C@H](NC(=O)CNC(=O)[C@H](CC(C)C)NC(=O)[C@@H](NC(=O)[C@H](Cc1ccc(O)cc1)NC(=O)[C@@H](NC(=O)[C@H](CO)NC(=O)[C@@H](NC(=O)[C@@H]1CCCN1C(=O)[C@@H](NC(=O)[C@@H](N)CO)C(C)C)[C@@H](C)O)C(C)C)[C@@H](C)O)C(=O)N[C@@H](CCCCN)C(=O)N[C@H](C(=O)N[C@@H](CC(C)C)C(=O)N[C@@H](Cc1c[nH]c2ccccc12)C(=O)N[C@@H](CO)C(=O)N[C@@H](C)C(=O)N[C@@H](Cc1ccc(O)cc1)C(=O)N[C@@H](CCCCN)C(=O)N[C@@H](Cc1cnc[nH]1)C(=O)N[C@@H](CCCN=C(N)N)C(=O)N[C@@H](CCCCN)C(=O)N[C@H](C(=O)N[C@H](C(=O)N[C@@H](CCC(=O)O)C(=O)N[C@@H](CCCCN)C(=O)N[C@@H](CO)C(=O)N[C@@H](Cc1ccccc1)C(=O)N[C@@H](CC(N)=O)C(=O)N[C@@H](CCCCN)C(=O)NCC(=O)N[C@@H](Cc1ccccc1)C(=O)N[C@@H](Cc1ccc(O)cc1)C(=O)N[C@@H](Cc1cnc[nH]1)C(=O)O)[C@@H](C)CC)[C@@H](C)O)[C@@H](C)CC` [SVPTSVYTLGIKILWSAYKHRKTIEKSFNKGFYH], the MIC in test [3] was 50 µM (≈ 200 µg/mL).
For `CC[C@H](C)[C@H](NC(=O)CNC(=O)[C@H](CCCCN)NC(=O)[C@@H](NC(=O)[C@H](CC(C)C)NC(=O)[C@H](CO)NC(=O)CNC(=O)[C@H](CC(C)C)NC(=O)[C@H](CC(=O)O)NC(=O)[C@H](C)NC(=O)[C@H](CCCCN)NC(=O)[C@H](CC(C)C)NC(=O)[C@@H](NC(=O)[C@H](CCC(=O)O)NC(=O)[C@H](CCCCN)NC(=O)[C@H](Cc1ccccc1)NC(=O)CN)C(C)C)C(C)C)C(=O)N[C@@H](C)C(=O)N[C@@H](C)C(=O)N[C@@H](Cc1cnc[nH]1)C(=O)N[C@H](C(=O)N[C@@H](C)C(=O)N[C@@H](CC(N)=O)C(N)=O)C(C)C` [GFKEVLKADLGSLVKGIAAHVAN], the values for the MIC in test [4], in test [5] and in [6] were 214 µM (≈ 500 µg/mL), 214 µM (≈ 500 µg/mL) and more than 400 µM, respectively.
`CC[C@H](C)[C@H](NC(=O)[C@H](CCCCN)NC(=O)[C@H](CCCCN)NC(=O)[C@@H](NC(=O)[C@@H](NC(=O)[C@H](CCCCN)NC(=O)[C@H](Cc1ccccc1)NC(=O)[C@H](CC(C)C)NC(=O)CN)[C@@H](C)CC)[C@@H](C)CC)C(=O)N[C@@H](Cc1c[nH]c2ccccc12)C(=O)N[C@@H](CCCCN)C(=O)N[C@@H](CO)C(=O)N[C@@H](Cc1ccccc1)C(N)=O` [GLFKIIKKIWKSF]: the MIC in [7] is 15.5 µM and 31.1 µM; in test [1], 1.94 µM and 3.89 µM; in test [2] it was 3.89 µM and 7.77 µM.
Take `CC[C@H](C)[C@H](NC(=O)[C@H](CC(C)C)NC(=O)[C@H](Cc1cnc[nH]1)NC(=O)[C@@H](NC(=O)[C@@H](NC(=O)[C@H](C)NC(=O)CNC(=O)[C@H](CC(C)C)NC(=O)[C@H](C)NC(=O)[C@H](C)NC(=O)[C@H](CCCCN)NC(=O)CNC(=O)[C@@H](NC(=O)CNC(=O)[C@H](CCCCN)NC(=O)[C@@H](NC(=O)[C@@H](NC(=O)[C@H](CC(=O)O)NC(=O)[C@H](CC(C)C)NC(=O)[C@H](Cc1ccccc1)NC(=O)CN)C(C)C)C(C)C)C(C)C)C(C)C)[C@@H](C)O)C(=O)N[C@@H](CC(N)=O)C(=O)N[C@@H](CCC(N)=O)C(=O)NCC(=O)N[C@@H](CCC(=O)O)C(=O)N[C@@H](CCC(N)=O)C(N)=O` [GFLDVVKGVGKAALGAVTHLINQGEQ]: the values for the MIC in test [4], in test [5] and in test [6] were 111 µM (≈ 291 µg/mL), 55.5 µM (≈ 145 µg/mL) and 222 µM (≈ 582 µg/mL), respectively.
As to `CC[C@H](C)[C@H](NC(=O)[C@H](CC(C)C)NC(=O)[C@H](Cc1cnc[nH]1)NC(=O)[C@@H](NC(=O)[C@@H](NC(=O)[C@H](C)NC(=O)CNC(=O)[C@H](CC(C)C)NC(=O)[C@H](C)NC(=O)[C@H](C)NC(=O)[C@H](CCCCN)NC(=O)CNC(=O)[C@@H](NC(=O)CNC(=O)[C@H](CCCCN)NC(=O)[C@H](CC(C)C)NC(=O)[C@@H](NC(=O)[C@H](CC(=O)O)NC(=O)[C@H](CC(C)C)NC(=O)[C@H](Cc1ccccc1)NC(=O)CN)C(C)C)C(C)C)C(C)C)[C@@H](C)O)C(=O)N[C@@H](CC(N)=O)C(=O)N[C@@H](CCC(N)=O)C(=O)NCC(=O)N[C@@H](CCC(=O)O)C(=O)N[C@@H](CCC(N)=O)C(N)=O` [GFLDVLKGVGKAALGAVTHLINQGEQ], the MIC is 27.5 µM (≈ 72.5 µg/mL) in test [4], 27.5 µM (≈ 72.5 µg/mL) in [5] and 55.1 µM (≈ 145 µg/mL) in [6].
In the case of `CC[C@H](C)[C@H](NC(=O)[C@H](CO)NC(=O)[C@H](C)NC(=O)[C@@H](NC(=O)[C@H](CCCCN)NC(=O)[C@H](CCCCN)NC(=O)[C@H](Cc1c[nH]c2ccccc12)NC(=O)[C@H](CC(N)=O)NC(=O)[C@@H](N)CCCCN)[C@@H](C)CC)C(=O)NCC(=O)N[C@@H](CCCCN)C(=O)N[C@@H](CCC(=O)O)C(=O)N[C@H](C(=O)N[C@@H](CC(C)C)C(=O)N[C@@H](CCCCN)C(=O)N[C@@H](C)C(=O)N[C@@H](CC(C)C)C(N)=O)C(C)C` [KNWKKIASIGKEVLKAL], the MIC in [8] is not below 60 µM; in [5], 12.5 µM (≈ 24.1 µg/mL).
As to `CC[C@H](C)[C@H](NC(=O)[C@H](Cc1c[nH]c2ccccc12)NC(=O)CNC(=O)[C@H](CCCCN)NC(=O)CNC(=O)[C@H](Cc1ccccc1)NC(=O)[C@H](Cc1cnc[nH]1)NC(=O)[C@H](C)NC(=O)[C@H](C)NC(=O)[C@H](C)NC(=O)[C@H](CCCCN)NC(=O)CNC(=O)[C@H](Cc1ccccc1)NC(=O)[C@H](CCCCN)NC(=O)[C@H](C)NC(=O)[C@@H](NC(=O)CN)C(C)C)C(=O)N[C@@H](CCCCN)C(=O)N[C@@H](CCC(=O)O)C(=O)N[C@@H](CCSC)C(=O)N[C@@H](CC(C)C)C(=O)N[C@@H](CC(N)=O)C(=O)N[C@@H](CO)C(N)=O` [GVAKFGKAAAHFGKGWIKEMLNS], the MIC in [1], in test [2] and in test [9] was more than 76 µM each time.
Regarding `CC(=O)N[C@@H](CC(C)C)C(=O)N[C@@H](CCCCN)C(=O)N[C@@H](CCCCN)C(=O)N[C@@H](CC(C)C)C(=O)N[C@@H](CC(C)C)C(=O)N1CCC[C@H]1C(=O)N[C@@H](CC(C)C)C(=O)N[C@@H](CC(C)C)C(=O)N[C@@H](CCCCN)C(=O)N[C@@H](CCCCN)C(=O)N[C@@H](CC(C)C)C(=O)N[C@@H](CC(C)C)C(=O)N[C@@H](CCCCN)C(=O)N[C@@H](CC(C)C)C(N)=O` [LKKLLPLLKKLLKL], the MIC in test [1] was 2.5 µM (≈ 4.26 µg/mL); in [2], 10 µM (≈ 17 µg/mL).
Consider `CC[C@H](C)[C@H](NC(=O)[C@H](CC(C)C)NC(=O)[C@H](C)NC(=O)[C@@H]1CCCN1C(=O)[C@H](CC(C)C)NC(=O)CN)C(=O)N[C@@H](CO)C(=O)N[C@@H](Cc1c[nH]c2ccccc12)C(=O)N[C@H](C(=O)N[C@@H](CCCCN)C(=O)N[C@@H](CCCN=C(N)N)C(=O)N[C@@H](CCCCN)C(=O)N[C@@H](CCCN=C(N)N)C(=O)NCC(=O)NCC(N)=O)[C@@H](C)CC` [GLPALISWIKRKRGG], for which the values for the MIC in [8], in [4] and in test [5] were 1.48 µM (≈ 2.45 µg/mL), 1.57 µM (≈ 2.6 µg/mL) and 47.4 µM (≈ 78.3 µg/mL), respectively.
`CC(=O)N[C@@H](CCCCN)C(=O)N[C@@H](Cc1ccc(O)cc1)C(=O)N[C@H](C(=O)NCC(=O)N[C@@H](CCCCN)C(=O)N[C@@H](CS)C(=O)N[C@H](C(=O)N[C@@H](CCCCN)C(=O)N[C@@H](CO)C(=O)N[C@@H](CCCCN)C(=O)N[C@@H](CC(N)=O)C(=O)N[C@@H](CCC(=O)O)C(=O)N[C@@H](CS)C(=O)N[C@@H](CCCCN)C(N)=O)[C@@H](C)O)[C@@H](C)O` [KYTGKCTKSKNECK] returned an MIC in test [6] of 10 µM (≈ 16.6 µg/mL).
In the case of `CC(C)[C@H](NC(=O)[C@H](Cc1c[nH]c2ccccc12)NC(=O)[C@H](CCCN=C(N)N)NC(=O)[C@@H](N)CCCN=C(N)N)C(=O)N[C@@H](C)C(=O)N[C@@H](Cc1c[nH]c2ccccc12)C(=O)N[C@@H](CCCN=C(N)N)C(=O)N[C@@H](CC(N)=O)C(=O)N[C@@H](CCCN=C(N)N)C(=O)O` [RRWVAWRNR], the MIC in test [1] and in test [2] was 96 µM (≈ 125 µg/mL) in each case.
Turning to `CC(=O)N[C@@H](CC(C)C)C(=O)N[C@@H](CCCCN)C(=O)N[C@@H](CCCCN)C(=O)N[C@@H](CC(C)C)C(=O)N[C@@H](CC(C)C)C(=O)N[C@@H](CCCCN)C(=O)N1CCC[C@H]1C(=O)N[C@@H](CC(C)C)C(=O)N[C@@H](CCCCN)C(=O)N[C@@H](CCCCN)C(=O)N[C@@H](CC(C)C)C(=O)N[C@@H](CC(C)C)C(=O)N[C@@H](CCCCN)C(=O)N[C@@H](CC(C)C)C(N)=O` [LKKLLKPLKKLLKL], the MIC in test [1] and in test [2] was 20 µM (≈ 34.3 µg/mL) in each case.
Turning to `CC[C@H](C)[C@H](NC(=O)[C@H](CC(C)C)NC(=O)[C@H](C)NC(=O)[C@@H]1CCCN1C(=O)[C@H](CC(C)C)NC(=O)CN)C(=O)N[C@@H](CO)C(=O)N[C@@H](CO)C(=O)N[C@H](C(=O)N[C@@H](CCCCN)C(=O)N[C@@H](CCCN=C(N)N)C(=O)N[C@@H](CCCCN)C(=O)N[C@@H](CCCN=C(N)N)C(=O)N[C@@H](CCC(N)=O)C(=O)N[C@@H](CCC(N)=O)C(N)=O)[C@@H](C)CC` [GLPALISSIKRKRQQ], the figures for the MIC in test [8], in [4] and in [5] were not below 45.1 µM, 22.5 µM (≈ 38.2 µg/mL) and more than 180 µM, respectively.
